Measurements as given in patent publication US11555055B2, “Peptide inhibitors of insulin-degrading enzyme” (The Regents of the University of California, priority 2017, dated 2023).
Entries after “also recorded” stand apart in the source; their conditions may differ. Where a SMILES comes first, the peptide text is derived from it. Bridges are numbered along the chain shown (N, C = ends).

System: primary murine skin fibroblasts
Test: Cell proliferation (CellTiter 96 AQueous)
Assay type: cell-based, mouse
Settings: 100 μM P12-3A, 10 nM insulin; not statistically significant
Experimental: FIG. 4A-F. Effects of P12-3A on cultured skin cells. A, Insulin concentrations as a function of time in logarithmically growing primary murine skin fibroblasts in the absence or presence of P12-3A (100 μM). […] Data are mean±SEM of 4 independent replications. *P<0.05, **P<0.01. B, Proliferation of cells in the absence or presence of P12-3A (100 μM). […] C,D,E, P12-3A (100 μM) potentiates insulin-induced collagen production in skin fibroblasts. Collagen production was assessed by COL1A1 mRNA levels (C), levels of hydroxyproline secreted into the medium (D), and cell-associated mature alpha-1 type I collagen levels detected by Western blotting (E). […] Migration of HaCaT cells 48 h after induction of a scratch wound in the presence of the indicated quantities of insulin and/or P12-3A (100 μM). […]
Insulin promotes wound healing and overall skin health by affecting a number of processes, including cell proliferation (2,3), cell migration (5,6), and the production and secretion of ECM components, particularly type I collagen (7-13). We therefore assessed the ability of P12-3A to influence these processes in cultured skin fibroblasts and keratinocytes. To that end, primary mouse skin fibroblasts were grown for 4 d in multiple concentrations of insulin in the presence or absence of P12-3A, and insulin concentration over time was monitored by ELISA. […]

CC(C)C[C@H](NC(=O)[C@H](CO)NC(=O)[C@@H](N)CCC(N)=O)C(=O)N1CCC[C@H]1C(=O)N[C@@H](Cc1c[nH]c2ccccc12)C(=O)N[C@H]1CSSC[C@@H](C(=O)N[C@H](C(=O)N[C@H](C(N)=O)[C@@H](C)O)C(C)C)NC(=O)[C@H](Cc2c[nH]cn2)NC(=O)[C@@H]2CCCN2C(=O)[C@H](Cc2ccc(O)cc2)NC1=O [Peptide P12-3A] (H-QSLPWCYPHCVT-NH2; disulfide 6-10 (inferred))
cell proliferation: modestly increased; also recorded: No significant differences
